Test results published in patent US20250312269A1, “ADMINISTRATION OF A P[…] BY INT[…]” (RESET PHARMACEUTICALS, INC., priority 2022, published 2025).
Where two headings read alike, the source gives them in different places.

Tests used:
[1] = Particle size distribution (PSD) analysis by laser diffraction of feed and micronised compound; assay type: physicochemical; details: primary pressure of 4 bar, lens R1/R3/R5 per sample
Protocol: In order to provide a small and homogeneous particle size of psychedelic compound in the final suspensions, psilocybin and psilocin were micronised before use. Micronisation was performed by wet bead milling using decafluoropentane as the antisolvent. In a glass vial, 200 mg psychedelic compound and 2 g of 1 mm silica beads were weighed. 3 mL of the antisolvent was added for psilocybin and 2 mL for psilocin. The samples were vortexed for approximately 15 seconds then milled at 530 rpm for 60 minutes.
(§1) The micronised sample was then separated from the silica beads and transferred to a petri dish and left at room temperature to allow for evaporation of the solvent overnight (approximately 18 hours). The dried sample was then collected and characterised by PSD and XRPD.
Particle size analysis was carried out, in single analysis, by laser diffraction using a Sympatec Helos particle size analyser, equipped with a RODOS dry dispersion unit and ASPIROS feeder unit. The lens and primary pressures were varied for each compound tested.

[2] = Human IM simulations of psilocin exposure, one (native) absorption rate; details: 'native' absorption rate taken from DMT IM model
Protocol: The model that was used is shown schematically in FIG. 6, mathematically the analytical solution is shown in equations (9)-(14).
Using the absorption rate from modelling the IM DMT data and the human systemic psilocin PK parameters, human IM simulations were run over 1-12 mg doses and the simulated PK profiles can be seen in FIG. 8. […] It was therefore investigated which dose produces the therapeutic plasma level (5 ng/mL) quickly, this can be seen in Table 4.

[3] = XRPD analysis after micronisation; assay type: physicochemical; details: wet bead milling in decafluoropentane
Protocol: as §1
X-ray powder diffraction (XRPD) analysis was carried out using a Bruker D2 Phaser powder diffractometer equipped with a LynxEye detector. The specimens were located at the centre of a silicon sample holder within a 5 mm pocket. The samples were continuously spun during data collection and scanned using a step size of 0.02° two theta (28) between […] to 60° two theta, the detailed parameters are summarised in Table 11. The data was processed using Diffrac Plus EVA software (Version 3.1).

[4] = Solubility assessment in excipients / vehicles
[5] = Two-compartment IV bolus PK model fitted to published psilocin plasma data after psilocybin IV; set-up: species or system human; details: estimate (95% CI)
Protocol: All analysis was performed using the software R and RStudio, with models being defined using analytical and ODE solutions.
Systemic PK parameters were derived for published human bolus psilocybin IV data. Human IV PK data for psilocin after psilocybin was administered was taken from Hasler et al. “Determination of psilocin and 4-hydroxyindole-3-acetic acid in plasma by HPLC-ECD and pharmacokinetic profiles of oral and intravenous psilocybin in man”. Pharm Acta Helv. 1997 June; 72(3):175-84. Model selection was performed by assessing visual fit to data and the respective model AIC's of a one compartment and two compartment IV PK model. These systemic human PK parameters were then used for human intramuscular injection simulations by simulating the PK profiles over a range of doses and absorption rates.
It is assumed that the generation of psilocin is instantaneous and complete once psilocybin is absorbed.
An IV two compartment model best described the IV data from FIG. 2. A two-compartment model gave a good description of the raw data capturing the Cmax and terminal phase well, FIG. 3. The systemic PK parameters can be seen in Table 1 and there are low errors in the parameter estimates.

[6] = One-compartment IM PK model fitted to published DMT IM data; set-up: species or system human; details: estimate (95% CI)
Description: (§2) DMT IM data was digitised from Kaplan et al. “Blood and urine levels of N,N-dimethyltryptamine following administration of psychoactive dosages to human subjects” Psychopharmacologia 38, 239-245 (1974). A one compartment model was used with linear absorption and clearance to describe the human IM data from Kaplan et al. 1974, and is shown schematically in FIG. 3. Mathematically, this model is a series of two linked ordinary differential equations (ODE's) given in equations (7)-(8).
Constant ka is the absorption rate constant (units 1/min), Cl is the clearance (units mL/min), Vc is the volume of distribution of the central compartment (units mL).
The model gives a satisfactory fit of the absorption phase, seen in FIG. 5, where the line is the simulate PK model and the points are the raw data. The fitted PK parameters can be found in Table 3.

[7] = Non-compartmental analysis of DMT IM bioavailability from digitised published data; assay type: in vivo; details: human, blood, intramuscular, 0.7 mg/kg, 0.7 mg/kg IM
Description: as §2
The points are the mean data, and the error bars are plus and minus the SEM. Non-compartmental analysis (NCA) was run to calculate the dose normalised AUC at four dose levels. The bioavailability of the IM data was then calculated, equation (3), at all four dose levels seen in Table 2, due to the IM dose being 0.7 mg/kg the 0.4 mg/kg bioavailability values were taken and therefore bioavailability was assumed to be one for the rest of the modelling.

[8] = IV administration; cited from earlier work
[9] = cited from earlier work

CN(C)CCc1c[nH]c2cccc(OP(=O)(O)O)c12 [Micronised psilocybin, psilocybin]
D10 [1]: 0.45 μm | D50 [1]: 1.20 μm | D90 [1]: 3.13 μm

CN(C)CCc1c[nH]c2cccc(O)c12 [Micronised psilocin, psilocin]
D10 [1]: 0.44 μm | D50 [1]: 1.07 μm | D90 [1]: 2.27 μm

CN(C)CCc1c[nH]c2cccc(O)c12 [psilocin, 4-hydroxy-N,N-dimethyltryptamine]
absorption half-life [2]: 4.53 min | chemical degradation upon micronisation (XRPD) [3]: no significant chemical degradation | solubility versus pH ([4]; initial solution trials in aqueous vehicles): higher solubility at acidic pH | solubility in DMSO and NMP ([4]; non-micronised): good solubility | CI ([5]; clearance, fit to 1 mg psilocybin IV data): 3810 (3340, 4290) ml/min | k21 ([5]; distribution rate from peripheral compartment): 0.0489 (0.0388, 0.0591) /min | k12 ([5]; distribution rate to peripheral compartment): 0.176 (0.144, 0.208) /min | V ([5]; volume of distribution of central compartment, fit to 1 mg psilocybin IV data): 88600 (77300, 99900) ml

CN(C)CCc1c[nH]c2cccc(O)c12 [Feed psilocin, psilocin]
D10 [1]: 20.36 μm | D50 [1]: 106.05 μm | D90 [1]: 232.08 μm

CN(C)CCc1c[nH]c2ccccc12 [DMT, N,N-dimethyltryptamine]
ka ([6]; absorption rate constant): 0.153 (−0.311, 0.616) ^ /min | CI ([6]; clearance): 21900 (4690, 39100) ml/min | V ([6]; 0.7 mg/kg IM): 353000 (−397000, 1100000) ml | bioavailability ([7]; AUC of IV infusion dose 0.05 mg/kg): 46.3% | bioavailability ([7]; AUC of IV infusion dose 0.1 mg/kg): 77.8% | bioavailability ([7]; AUC of IV infusion dose 0.2 mg/kg): 132% | bioavailability ([7]; AUC of IV infusion dose 0.4 mg/kg): 162%

CN(C)CCc1c[nH]c2cccc(OP(=O)(O)O)c12 [Feed psilocybin, psilocybin]
D10 [1]: 1.16 μm | D50 [1]: 5.46 μm | D90 [1]: 16.32 μm

CN(C)CCc1c[nH]c2cccc(OP(=O)(O)O)c12 [psilocybin, [3-(2-dimethylaminoethyl)-1H-indol-4-yl]dihydrogen phosphate]
duration of the psychological effects [8]: 20 minutes | onset of action [8]: 1 to 2 min | duration ([9]; oral dosing): 4 to 8 h | maximum effect (time) ([9]; oral dosing): 60 to 90 min | onset of action ([9]; oral dosing): 20 to 40 min | bioavailability ([9]; reported, oral dosing context): approximately 50% | chemical degradation upon micronisation (XRPD) [3]: no significant chemical degradation | solubility in all the excipients tested ([4]; non-micronised, 20 excipients): poor solubility
